Consider four compounds from PMC6154694, “Absorption, Metabolic Stability, and Pharmacokinetics of Ginger Phytochemicals” (Molecules : A Journal of Synthetic Chemistry and Natural …, 2017).

A word on the solubility: it is the dissolved amount per volume that the medium holds. What is called half-life is the time in which the quantity being followed falls by half. Read a high half-life as slow loss. For orientation: amount remaining means the share of the starting amount still present when the sample was taken.

Each structure is given as a SMILES string.

Data set [1] can be described thus: pH dependent kinetic solubility in hydrochloride, citrate and phosphate buffers. Format: physicochemical. The following applies: 23 °C, kinetic from dmso stock, tested 10 to 100 µM, n = 2. Here is the method: Calibration standards were prepared by spiking 5 μL of DMSO stock solutions into 995 μL acetonitrile/buffer (1:1) mixture. Following centrifugation (10,000 rpm, 10 min, 25 °C) the reaction samples were diluted 1:1 with acetonitrile.

Data set [2] in a line: Solubility and stability in simulated intestinal fluid (SIF). Format: in vitro ADME. The following applies: pH 6.8, 37 °C, n = 2. Here is the method: SGF and SIF were prepared as per USP method. Briefly, SGF was prepared by adding 2 g of sodium chloride and 3.2 g of pepsin with water and pH was adjusted to 1.2 ± 0.1 using hydrochloric acid (7 mL) and volume made up to 1 L. SIF was prepared by dissolving 6.8 g monobasic potassium phosphate and 10 g pancreatin in Milli-Q water (Millipore, Billerica, MA, USA). pH was adjusted to 6.8 ± 0.1 with sodium hydroxide solution and volume was made upto 1 L. Reactions were initiated by spiking DMSO stock solutions of GE phenolics 10 μL into 1990 μL of SGF and SIF incubated at 37 °C for 10 min. Samples (200 μL) were withdrawn at 0, 15, 30, and 60 min for SGF and at 0, 30, 60, and 120 min for SIF and quenched with 200 μL acetonitrile containing internal standard.

Data set [3] in a line: Liver microsomal stability, mouse. Format: in vitro ADME, CD1 mouse. The following applies: protein 0.5 mg/mL; for remaining at 0.5 h, 10 µM: CD1, pooled liver microsomes, pH 7.4, substrate 10 µM, n = 2, read-out: % Remaining at 30 min; for Intrinsic Clearance: mouse liver microsomes, substrate 10 µM, 45 mg protein/g liver. Here is the method:
(§1) Pooled liver microsomes from CD1 mouse, IGS Sprague-Dawley rat, Beagle dog, and mixed gender human were used for assays. Incubations (1 mL) consisted of liver microsomes (0.5 mg/mL), NADPH (1 mM) and 100 mM sodium phosphate buffer (pH 7.4). Following pre-incubation (10 min, 37 °C), reactions were initiated by spiking ACN/DMSO (80:20) stock solutions of GE phenolics (5 μL, 10 μM). Samples (100 μL) were withdrawn at 0, 5, 10, 15, 20 and 30 min and quenched with 200 μL acetonitrile containing internal standard. Concomitant NADPH-free control incubations were prepared similarly.
Background: Liver microsomes are vesicles of endoplasmic reticulum, rich in cytochrome P450 enzymes.

The nature of data set [4]: Liver microsomal stability, rat. The following applies: protein 0.5 mg/mL; for remaining at 0.5 h, 10 µM: IGS Sprague-Dawley, pooled liver microsomes, pH 7.4, substrate 10 µM, n = 2, read-out: % Remaining at 30 min; for Intrinsic Clearance: rat liver microsomes, substrate 10 µM, 45 mg protein/g liver. The class given is in vitro ADME, IGS Sprague-Dawley rat. Here is the method:
as §1

The nature of data set [5]: Liver microsomal stability, dog. The following applies: protein 0.5 mg/mL; for remaining at 0.5 h, 10 µM: Beagle, pooled liver microsomes, pH 7.4, substrate 10 µM, n = 2, read-out: % Remaining at 30 min; for Intrinsic Clearance: dog liver microsomes, substrate 10 µM, 45 mg protein/g liver. The class given is in vitro ADME, Beagle dog. Here is the method:
as §1

Data set [6] is described as follows: Liver microsomal stability, human. Format: in vitro ADME. The following applies: protein 0.5 mg/mL; for remaining at 0.5 h, 10 µM: both sexes, pooled liver microsomes, pH 7.4, substrate 10 µM, n = 2, read-out: % Remaining at 30 min; for Intrinsic Clearance: human liver microsomes, substrate 10 µM, 45 mg protein/g liver. The protocol: as §1
Data set [7] is described as follows: Liver microsomal stability, statements across species. The class given is in vitro ADME. The following applies: CD1 (mouse), IGS Sprague-Dawley (rat), Beagle (dog), human, pooled liver microsomes, pH 7.4. The protocol:
as §1

Where [8] appears, read: 100 mM citrate buffer, aqueous buffer, pH 4, citrate buffer.
The mark [9] stands for this setting: 100 mM phosphate buffer, aqueous buffer, pH 7.4, phosphate buffer.
[10] abbreviates: simulated gastric fluid, pH 2, hydrochloride buffer.

With `CCCCC[C@H](O)CC(=O)CCc1ccc(O)c(OC)c1` [6G, 6-gingerol], the solubility at 2 h in data set [1] (setting [8]), in data set [1] (setting [9]) and in data set [1] (setting [10]) was more than 100 µM throughout. In data set [2], this compound gave a half-life at 10 µM of more than 2 h. In addition, the share remaining at 0.5 h, 10 µM in data set [3] was found to be 30%; in data set [4], 50%; in data set [5], 67%; in data set [6] it was 56%. For the same compound, the “Intrinsic Clearance” value in data set [3] stood at 10.5 mL/min/g Liver; in data set [4], 11.2 mL/min/g Liver; in data set [5], 14.1 mL/min/g Liver; in data set [6] it was 6.6 mL/min/g Liver.

For the compound `CCCCC/C=C/C(=O)CCc1ccc(O)c(OC)c1` [6S, 6-shogaol], the solubility at 2 h in data set [1] (setting [8]), in data set [1] (setting [9]) and in data set [1] (setting [10]) was less than 10 µM in each case. Besides, the values for the half-life at 10 µM in data set [2] and in data set [7] were more than 2 h and less than 0.5 h, respectively. The amount remaining at 0.5 h, 10 µM in data set [3] was determined as 3%; in data set [4], 1%; in data set [5] it was 9%; in data set [6], 1%. For the same compound, the “Intrinsic Clearance” value in data set [3] came to 15.7 mL/min/g Liver; in data set [4] it was 13.0 mL/min/g Liver; in data set [5], 29.9 mL/min/g Liver; in data set [6], 8.4 mL/min/g Liver.

`CCCCCCCC(O)CC(=O)CCc1ccc(O)c(OC)c1` (centres unmarked) [8G, 8-gingerol]: the solubility at 2 h in data set [1] (setting [8]), in data set [1] (setting [9]) and in data set [1] (setting [10]) was more than 100 µM in each case. Further, the half-life at 10 µM in data set [2] is more than 2 h; in data set [7] it was less than 0.5 h. Besides, the fraction remaining at 0.5 h, 10 µM in data set [3] came out at 3%; in data set [4], 9%; in data set [5], 6%; in data set [6], 1%. Besides, the “Intrinsic Clearance” value is 15.1 mL/min/g Liver in data set [3], 7.0 mL/min/g Liver in data set [4], 14.0 mL/min/g Liver in data set [5] and 8.5 mL/min/g Liver in data set [6].

Regarding `CCCCCCCCCC(O)CC(=O)CCc1ccc(O)c(OC)c1` (centres unmarked) [10G, 10-gingerol], the solubility at 2 h in data set [1] (setting [8]), in data set [1] (setting [9]) and in data set [1] (setting [10]) was less than 10 µM throughout. The half-life at 10 µM in data set [2] is more than 2 h. Also, the share remaining at 0.5 h, 10 µM in data set [3] turned out to be 10%; in data set [4] it was 13%; in data set [5], 45%; in data set [6] it was 22%. For the same compound, the “Intrinsic Clearance” value in data set [3] was determined as 8.0 mL/min/g Liver; in data set [4], 5.4 mL/min/g Liver; in data set [5], 5.6 mL/min/g Liver; in data set [6] it was 6.7 mL/min/g Liver.
